Data set [1] has as its system P. falciparum 3D7. Nature of the data set: In vitro inhibition of P. falciparum 3D7 (SYBR Green I-based fluorescence assay). In kind it is cell-based, Plasmodium falciparum. Particulars: for IC80 / IC50: Plasmodium falciparum; for IC80: concentration used in the 72-h exposure assay; for logIC50: base-10 log-transformed IC50 against P. falciparum 3D7. Further details: logIC50: unit not given here. On the procedure: (§1) The cultures were maintained in an incubator under specific conditions: 37 °C under 5% CO2 and 5% O2.
(§2) The D-sorbitol method (CAS: 50-70-4, Wako, Osaka, Japan) was employed to synchronize parasites, resulting in the attainment of ≥90% ring-stage parasites. These synchronized parasites were then utilized for the experiments within a 2-h window. The assay was performed as follows. First, 50 μL of synchronized parasites with 0.5% parasitemia and 2% hematocrit were added to individual wells of a 96-well plate. Then, 50 μL of the test compounds was introduced to each well. […] Wells containing only test compounds and erythrocytes were included for background correction. […] After the designated incubation time, 100 μL of lysis buffer containing 0.02% (v/v) SYBR Green I was added to each well, the contents of the well were mixed by pipetting, and the plate was incubated in the dark at room temperature for 2 h. […] This assay was repeated four times at each concentration, and the resulting inhibitory values represent the average from three independent trials.
(§3) The IC50 or CC50 values were determined from three independent experiments by plotting the logarithmic concentration of the compound against the percent parasite inhibition or cell growth inhibition, respectively. Nonlinear regression analysis was conducted using GraphPad Prism 10 (GraphPad Software, Inc., La Jolla, CA, USA). Comparisons between groups were evaluated using either one-way or two-way ANOVA followed by Tukey's or Fisher's multiple comparisons tests. […] The meaning of each symbol is specified in the corresponding figure legend alongside the name of the employed test.

A further data set concerns P. falciparum K1. Nature of the data set: In vitro inhibition of P. falciparum K1 (SYBR Green I-based fluorescence assay). Type of data set: cell-based. The note with it: Plasmodium falciparum; multidrug-resistant strain K1; 72 h incubation; average ± SD, three independent experiments; read-out: IC50 P. falciparum K1. On the procedure: as §1, §2, §3
Data set [2] can be described thus: In vitro toxicity to human cells (cell viability assay). Type of data set: cell-based. Particulars: human foreskin fibroblasts (HFFs), average ± SD, three independent experiments. How it is done:
HFF cells are selected for cytotoxicity testing in this study, providing a physiologically relevant model for the evaluation of drug interactions with human cells. […] This designation makes them a suitable model for the investigation of cellular processes and their sensitivity to toxic substances, which is crucial for the early identification of potential adverse effects of drugs during the development process.
The IC50 or CC50 values were determined from three independent experiments by plotting the logarithmic concentration of the compound against the percent parasite inhibition or cell growth inhibition, respectively. Nonlinear regression analysis was conducted using GraphPad Prism 10 (GraphPad Software, Inc., La Jolla, CA, USA). Comparisons between groups were evaluated using either one-way or two-way ANOVA followed by Tukey's or Fisher's multiple comparisons tests. A p-value of <0.05 was considered to indicate statistical significance and is denoted by an asterisk or a symbol. The meaning of each symbol is specified in the corresponding figure legend alongside the name of the employed test.

For data set [3], the system named is P. falciparum 3D7. Nature of the data set: IC50 speed assay (24, 48, 72 h). In kind it is cell-based, Plasmodium falciparum. Particulars: P. falciparum 3D7; for Speed of action (IC50 speed assay): IC50 at 24, 48, 72 h compared; for IC50: Plasmodium falciparum. On the procedure: as §2
Data set [4] deals with P. falciparum 3D7. Nature of the data set: Stage-specific assay on ring and schizont stages (SYBR Green I, 24 h). Type of data set: cell-based, Plasmodium falciparum. Particulars: eight concentrations from 100-fold IC50. How it is done: To ensure uniformity, the parasites underwent a rigorous synchronization process using a two-step sorbitol treatment procedure. This synchronized parasite population was harnessed within a 2-h window for the ring stage, 8–10 h for the trophozoite stage, and 24–26 h for the schizont stage. Subsequent to sorbitol treatment, early trophozoites could be obtained within 6–8 h after the initial sorbitol treatment (within 20 h of development), while early schizonts could be obtained after an additional 16 h of incubation (within 36 h of development). Beyond 36 h, the schizonts mature, causing the rupture of red blood cells (RBCs) and the consequent release of merozoites, which promptly infect new RBCs.
Wells containing only the test compounds and erythrocytes were included to correct for background activity. The 96-well plates were incubated for 24 h at 37 °C in an atmosphere of 5% CO2 and 5% O2. The growth of P. falciparum 3D7 was detected using a SYBR Green I-based fluorescence assay.

A further data set deals with P. yoelii 17XNL. In kind it is in vivo. Particulars: C57BL/6 mice, P. yoelii 17XNL; for Parasitemia compared to the untreated control group: 20 mg/kg daily over 10 days; for Body weight or hematocrit levels / Mortality / Peak of parasitemia, trial 1 / Peak of parasitemia, trial 2: 20 mg/kg i.p. once daily for ten days; for Peak of parasitemia, trial 1: untreated 21.7%; for Peak of parasitemia, trial 2: untreated 28.3%. How it is done: Male C57BL/6 mice, aged eight weeks, were obtained from Japan CLEA (Tokyo, Japan) and housed with six per cage in each group. These mice were kept under conditions of 24 °C, 50% relative humidity, and a light-dark cycle of 8 a.m. to 8 p.m. Access to drinking water and food (CLEA Rodent Diet CE-2; Japan CLEA, Tokyo, Japan) was unrestricted. Prior to experimentation, P. yoelii 17XNL was recovered from cryopreserved erythrocyte stocks via passage in mice. […]. Parasitemia levels were evaluated […] by collecting 2 μL of blood from the mouse tail for thin blood smear preparation. Treatment was initiated upon reaching a parasitemia level of 1%. […]. Parasitemia in infected mice was observed daily by preparing Giemsa-stained thin blood smears (up to 30 dpi). Hematocrit levels were measured every other day using a Celltac-α MEK-6550 (Nihon Kohden, Tokyo, Japan), with 10 μL of blood collected from the mouse tail for each assessment. The animals were handled and treated in accordance with the Guide for the Care and Use of Laboratory Animals by the Ministry of Education, Culture, Sports, Science, and Technology, Japan. Ethical permission for the animal experiment protocols was secured under permit numbers 21–35 and 23–90 from the ethical committee of Obihiro University of Agriculture and Veterinary Medicine.
The median point within this range was selected to maintain a balance between efficacy and safety. Furthermore, a modified Peter's suppression test was utilized to assess the efficacy of antimalarial drugs ([Ager, 1984]; [Peters et al., 1975]). The treatment and observation period were initially set for 4 days. […] […]. […] These findings highlight the effect of the 20 mg/kg/day dosage of Compounds 31 and 32 in reducing parasitemia without causing side effects.

A short description of another data set: Hemolysis rate. Type of data set: cell-based. Particulars: erythrocytes (red blood cells).
Where [5] appears, read: Table S2, P. falciparum 3D7, value used for SAR analysis, read-out: IC50.
Setting [6] is: chloroquine-sensitive strain 3D7, 72 h incubation, average ± SD, three independent experiments, read-out: IC50 P. falciparum 3D7.
Where [7] appears, read: 24 h incubation, read-out: IC50 24 h.
Setting [8] is: 48 h incubation, read-out: IC50 48 h.
[9] abbreviates: 72 h incubation, read-out: IC50 72 h.

The IC80 is the point of the concentration-response curve where the effect stands at 80%. A word on the IC50: it is the concentration that inhibits the measured activity by half. For orientation: CC50 means the concentration giving 50% cytotoxicity.

A value given as a limit tells only on which side of the number the result lay.

Molecule `COc1cccc(-c2ncc(-c3ccccc3O)o2)c1OC` [Compound 31, 2-(2′,3′-dimethoxyphenyl)-5-(2″-hydroxyphenyl)oxazole] gave an IC80 with P. falciparum 3D7 [1] (P. falciparum 3D7) of 18.1 µM. For the same molecule, the 50% inhibitory concentration (IC50) with P. falciparum 3D7 [1] (setting [5]) stood at 8.37 µM; with P. falciparum 3D7 [1] (setting [6]), 8.37 ± 1.28 µM; in the data set on P. falciparum K1 it was 2.66 ± 1.15 µM; with P. falciparum 3D7 [3] (setting [7]), 45.2 ± 10.6 µM; in the data set with P. falciparum 3D7 [3] (setting [8]) it was 18.8 ± 1.86 µM; in the data set with P. falciparum 3D7 [3] (setting [9]) it was 8.37 ± 1.28 µM. For the same molecule, the logIC50 in the data set on P. falciparum 3D7 [1] (Table S2) is listed as 0.9226. The same molecule had a CC50 in data set [2] of over 336 µM. Also, the “Speed of action (IC50 speed assay)” value in the data set with P. falciparum 3D7 [3] is given as “slow-acting”. In addition, the “Stage specificity (ring and schizont stages)” value in the data set with P. falciparum 3D7 [4] is “classic slow-acting profile, which only gains significant activity at elevated concentrations”. Further, in the data set on P. yoelii 17XNL, the “Parasitemia compared to the untreated control group” value is on record as “significant reduction in parasitemia”. Also, the “Body weight or hematocrit levels” value with P. yoelii 17XNL is “nor were reductions in body weight or hematocrit levels observed”. The Mortality entry with P. yoelii 17XNL is on record as “no instances of mortality”. Besides, the “Peak of parasitemia, trial 1” value in the data set on P. yoelii 17XNL is 12.7%. The “Peak of parasitemia, trial 2” value with P. yoelii 17XNL came out at 15.8%. This molecule displayed a hemolysis at 1000 µM in “Hemolysis rate” of under 3%.

In turn, `COc1cccc(-c2ncc(-c3ccccc3OCc3ccccc3)o2)c1OC` [Compound 32, 2-(2′,3′-dimethoxyphenyl)-5-(2″-benzyloxyphenyl)oxazole] showed an IC80 in the data set on P. falciparum 3D7 [1] (P. falciparum 3D7) of 11.7 µM. For the same molecule, the IC50 with P. falciparum 3D7 [1] (setting [5]) amounted to 6.25 µM; in the data set on P. falciparum 3D7 [1] (setting [6]), 6.25 ± 1.39 µM; with P. falciparum K1, 4.37 ± 1.7 µM; in the data set on P. falciparum 3D7 [3] (setting [7]), 31.2 ± 4.13 µM; with P. falciparum 3D7 [3] (setting [8]), 33.4 ± 2.67 µM; with P. falciparum 3D7 [3] (setting [9]) it was 6.25 ± 1.39 µM. The same molecule registered a logIC50 with P. falciparum 3D7 [1] (Table S2) of 0.7961. The half-maximal cytotoxic concentration (CC50) in data set [2] was over 258 µM. For the same molecule, in the data set on P. falciparum 3D7 [3], the “Speed of action (IC50 speed assay)” value is recorded as “slow-acting”. The “Stage specificity (ring and schizont stages)” value in the data set on P. falciparum 3D7 [4] is “effect on the ring and schizont stages is comparable to those positive controls”. Further, in the data set with P. yoelii 17XNL, the “Parasitemia compared to the untreated control group” value is recorded as “significant reduction in parasitemia”. Moreover, the “Body weight or hematocrit levels” value with P. yoelii 17XNL is on record as “nor were reductions in body weight or hematocrit levels observed”. The Mortality entry with P. yoelii 17XNL is on record as “no instances of mortality”. The “Peak of parasitemia, trial 1” value in the data set on P. yoelii 17XNL is 12.7%. For the same molecule, the “Peak of parasitemia, trial 2” value in the data set with P. yoelii 17XNL came out at 14.0%. Besides, the hemolysis at 1000 µM in the data set “Hemolysis rate” was under 3%.

(Values after PMC11067372, “Evaluation of the antiplasmodial efficacy of synthetic 2,5-diphenyloxazole analogs of compounds naturally derived from Oxytropis lanata” (International Journal for Parasitology: Drugs and Drug …, 2024).)
